The numbers were not newly measured in paper PMC7886095 (Drug Design, Development and Therapy, 2021), which cites them from elsewhere.

By aqueous solubility is commonly meant how much of the substance goes into solution per volume.

Bounds are passed on as bounds.

As to `COc1cc(O)c2c(=O)cc(-c3ccc(O)cc3)oc2c1` [GKA, Genkwanin], the aqueous solubility was below 1 µg/mL.
